Laboratory results published in patent publication US20210230548A1, “NATURAL KILLER CELLS ENGINEERED TO EXPRESS CHIMERIC ANTIGEN RECEPTORS WITH IMMUNE CHECKPOINT BLOCKADE” (Board of Regents, The University of Texas System, priority 2018, published 2021).

Legend:
CISH locus = experiment: GUIDE-seq off-target identification in HEK293 cells constitutively expressing Cas9; format: cell-based; details: GuideSeq
Source text: Off-target Identification: The GUIDE-seq method was employed for unbiased discovery of off-target editing events (Tsai et al., 2015). In this study, HEK293 cells that constitutively express the S pyogenes Cas9 nuclease (“HEK293-Cas9” cells) were the source of Cas9. Alt-R® gRNA complexes were formed by combining Alt-R tracrRNA and Alt-R crRNA XT at a 1:1 molar ratio. gRNA complexes were delivered by nucleofection using the Amaxa™ Nucleofector™ 96-well Shuttle™ System (Lonza, Basel, Switzerland). For each nucleofection, 3.5×10^5 HEK293-Cas9 cells were washed with 1×PBS, resuspended in 20 μL solution SF (Lonza) and combined with 10 μM gRNA along with 0.5 μM GUIDE-seq dsDNA donor fragment. This mixture was transferred into one well of a Nucleocuvette™ Plate (Lonza) and electroporated using protocol 96-DS-150. DNA was extracted 72 hrs after electroporation using the GeneJET Genomic DNA purification kit (Thermo Fisher Scientific). NGS library preparation, sequencing, and operation of the GUIDE-seq software was performed as previously described except that Needleman-Wunch alignment was incorporated (Tsai et al., 2016).

[1] = system: iC9/CAR.19/IL-15 NK cells; experiment: Activation of suicide gene in vitro with dimerizer AP1903; format: cell-based
Method: (§1) Activation of suicide gene in vitro and validation in vivo: The small-molecule dimerizer AP1903 (10 nM), was added to CB-NK cell cultures for 4 h. The elimination of transduced cells was evaluated by Annexin-V/Live dead staining. The efficacy of the suicide gene was also tested in vivo by treating tumor-bearing mice that had received iC9/CAR.19/IL-15+ NK cells (control or CISH KO) with two doses of AP1903 (50 μg each) intraperitoneally, 2 days apart on days 7 and 9. Two other groups of mice (control and CISH KO) served as control without AP1903 treatment. All mice were sacrificed on day 12, and blood and organs (Liver, spleen and bone marrow) were collected, processed and flow cytometry was performed to determine CAR-NK fraction and viability.

[2] = system: iC9/CAR.19/IL-15 CB-NK cells; experiment: Suicide gene validation in vivo in Raji tumor-bearing mice; parameters: species or system mouse; details: dimerizer on days 7 and 9 post NK infusion, sacrifice day 12; both control and CISH KO cells
Method: as §1

Molecule	off-target sites / events (CISH locus)	time to apoptosis of transduced NK cells ([1]; 10 nM)	apoptosis of transduced NK cells ([1]; 10 nM added to cultures)	reduction in iC9/CAR.19/IL-15 CB-NK cells in blood and tissues (liver, spleen, bone marrow) [2]
crRNA2: crRNA targeting CISH exon 4, sequence TGTACAGCAGTGGCTGGTGG (SEQ ID NO:2) (listed as DNA, chemistry not given here)	even higher frequencies of off-target events	–	–	–
CC[C@H](C(=O)N1CCCC[C@H]1C(=O)O[C@H](CCc1ccc(OC)c(OC)c1)c1cccc(OCC(=O)NCCNC(=O)COc2cccc([C@@H](CCc3ccc(OC)c(OC)c3)OC(=O)[C@@H]3CCCCN3C(=O)[C@@H](CC)c3cc(OC)c(OC)c(OC)c3)c2)c1)c1cc(OC)c(OC)c(OC)c1 [AP1903]	–	≤ 4 h	induced apoptosis of transduced NK cells	striking reduction
